Laboratory results as given in article PMC4721142, “Randomized controlled studies on the efficacy of antiarthritic agents in inhibiting cartilage degeneration and pain associated with progression of osteoarthritis in the rat” (Arthritis Research & Therapy, 2016).
Values joined by “and” are separate entries in the source; they are usually repeats but may differ in a detail not shown here. Identical values can stand only once.

Legend:
MIA rat model of OA = assay: MIA trial 3 histopathology (same doses as dRS test); type: in vivo; parameters: key to Cartilage matrix damage score: 5-point cartilage matrix score; key to Mean of all cartilage loss: approximate % loss, mean of four articular surfaces; Subchondral bone sclerosis: scale not given here; details: group mean
Description: For MIA trial 3, joints were fixed and toluidine blue–stained sections of the rat knees were comprehensively analyzed from test and control subjects as detailed in Additional file 1. Briefly, a 5-point cartilage matrix score was derived based upon (1) approximate percentage of total loss of articular chondrocytes for each of four articular surfaces, (2) estimated proteoglycan loss (via Safranin O staining), and (3) loss of interstitial matrix. Chondrocyte necrosis and proteolytic degeneration of the femurs were scored on a 5-point scale as in trial 1. A femoral cartilage degeneration score and a three-zone sum of the tibial cartilage degeneration scores (mean of three levels) were also summed to create a total cartilage degeneration score. The mean osteophyte score for each joint was added to this value to create a total joint score with matrix. Other parameters assessed included synovial membrane inflammation and proliferation. Representative images from each group were also collected (see, e.g., Fig. 4 and Additional file 1: Fig. S55, Trial 3). […]
Hawes, APS, Pathologist). Treatments were masked during the assessment. Chondrocyte necrosis and proteolytic degeneration of the femurs were scored on a 5 point scale with 0 = None; 1 = <10%; […]
For the histopathology of the MIA model in Trial 3, completed by Bolder BioPATH (and Dr.
Bendele), a tolouidine blue stained slide containing both halves of the joint was comprehensively analyzed from test and control subjects. Approximate % of total loss of articular chondrocytes, loss of proteoglycan and loss of collagenous matrix were determined for each articular surface (medial tibial plateau (MTP), lateral tibial plateau (LTP), medial femoral condyle (MFC), and lateral femoral condyle (LFC). Chondrocyte loss was quantified by estimating the area of cartilage in which there were no apparently viable chondrocytes and proteoglycan loss was quantified by estimating differences in intensity of toluidine blue matrix staining. Loss of interstitial matrix was an indication of disruption and diminished type II collagen. Based on the mean % loss for the four surfaces in these parameters, a five point matrix score was utilized with the subchondral bone resorption, subchondral bone sclerosis and osteophyte scores to achieve a total joint score. […]
[…] steps, stained with toluidine blue (with a right and left halve per section), and analyzed for cartilage degeneration, proteoglycan loss, collagen damage, and osteophyte formation. Results were averaged across the 3 sections for an overall semi-quantitative score. Regional differences across the tibial plateau were taken into consideration by dividing each section into 3 zones delineated using an ocular micrometer (outside, middle, and inside). Scores were based on the percentage of area affected within the zone.
Cartilage degeneration in the tibia was scored on a five point scale for each zone, collagen damage across the medial tibial plateau was measured by total width for each grade damage. Cartilage degeneration in the tibia was scored none to severe (numerical values 0-5) for each zone (area defined by micrometer) using the following criteria: […]

MMT/MCLT rat model of OA = assay: MMT/MCLT trial 1 weight bearing (daily morphine 10 mg/kg, tacrolimus 0.3 or 0.6 mg/kg, fluocinolone 5 or 10 μg/kg, clonidine 100 μg/kg, alendronate 10 μg/kg i.p.; curcumin, withaferin 50 mg/kg p.o.); type: in vivo
Experimental: Weight bearing (WB; incapacitance) was measured five times per day, once per week, using a Linton incapacitance meter (Stoelting Co., Wood Dale, IL, USA). Rats were acclimated to the meter before study initiation, and, similarly, immediately before WB, the animals were placed in the meter and allowed to acclimate for 2–5 minutes. Each hind paw was placed on a separate force plate so that the force exerted by each side could be averaged over a 5-second interval, and the mean of three readings was taken for each data point. Right paw force was compared with that on the left side for each group to confirm that animals were displaying incapacitance and/or pain behavior. Differences in force (left minus right) and right paw force as a percentage of the total force exerted by both paws were determined and compared between groups.
Following isoflurane anesthesia, the medial collateral ligament was transected just below its attachment to the meniscus in the right knee. The meniscus was cut at its narrowest point away from the ossicles so as not to damage the tibial surface and to ensure that the anterior and posterior meniscus halves were freely movable. […] In trial 2, drugs were administered IA weekly beginning 1 week following surgery. Three weeks postsurgery, animals were humanely killed and their right knees were collected for histopathology. All studies were conducted in accordance with the International Association for the Study of Pain Guidelines and were approved by the Bolder BioPATH IACUC (Boulder, CO, USA) in compliance with regulations before study initiation (IACUC protocol BBP03-006). Those running the studies were blinded to the treatments. See Additional file 1 for further details.
Isoflurane and the right knee area prepared for surgery. A skin incision was made over the medial aspect of the knee and the medial collateral ligament was exposed by blunt dissection and then transected. The medial meniscus was cut through the full thickness to simulate a complete tear and the skin was then closed with suture.
All pharmaceutical agents were prepared and stored as recommended by the supplier. Daily drug preparations were made fresh from stock solutions. […]
In Trial 2 drugs were […]
administered IA weekly beginning one week following surgery. […]
were delivered by gavage and were prepared in 0.3% Methyl Cellulose.
WB was measured five times a day, once a week, using a Linton incapacitance meter (Stoelting Co.) to assess pain behavior. Rats were acclimated to the incapacitance meter prior to study initiation.
Similarly, immediately prior to WB animals were placed in the incapacitance meter and allowed to acclimate for 2-5 minutes. Each hind paw was placed on a separate force plate so that the force exerted by each side could be averaged over a 5 second interval and the mean of three readings taken for each data point. Right paw force was compared to left for each group to confirm that animals were displaying incapacitance / pain behavior. Difference in force (left minus right) and right paw force as a percentage of the total force exerted by both paws were determined and compared between groups. Three weeks after surgery, animals were humanely euthanized and right knees collected for histopathology evaluation.
Figure 2. MMT/MCLT Trial Timeline […]
MMT/MCLT Dosing (once/day)
The study design and animal usage was approved by Bolder BioPATH’s Institutional Animal Care and Use Committee (IACUC) for compliance with regulations prior to study initiation (IACUC […]
Labs. Animals were identified by a distinct mark at the base of the tail delineating group and animal number. After randomization, all cages were labeled with protocol number, group numbers, and animal numbers with appropriate color-coding (see protocol).

Row | SMILES | Bone resorption percent, LFC (MIA rat model of OA; i.a. weekly) [%] | Bone resorption percent, LTP (MIA rat model of OA; i.a. weekly) [%] | Bone resorption percent, MFC (MIA rat model of OA; i.a. weekly) [%] | Bone resorption percent, MTP (MIA rat model of OA; i.a. weekly) [%] | Bone resorption percent, mean (MIA rat model of OA; i.a. weekly) [%] | Bone resorption score (MIA rat model of OA; i.a. weekly) | Cartilage matrix damage score (MIA rat model of OA; i.a. weekly) | Mean of all cartilage loss (MIA rat model of OA; i.a. weekly) | Osteophyte measure (MIA rat model of OA; i.a. weekly) [µm] | Osteophyte score (MIA rat model of OA; i.a. weekly) | Subchondral bone sclerosis (MIA rat model of OA; i.a. weekly) | Total joint score w/o matrix (MIA rat model of OA; i.a. weekly) | Total joint score with matrix (MIA rat model of OA; i.a. weekly) | Weight bearing, hours with significant effect (MMT/MCLT rat model of OA; day 7, low or only dose) [h] | Weight bearing, hours with significant effect (MMT/MCLT rat model of OA; day 14, low or only dose) | Weight bearing, hours with significant effect (MMT/MCLT rat model of OA; day 21, low or only dose) [h] | also measured
1 | COc1ccc(C=CC(=O)Nc2ccccc2C(=O)O)cc1OC [Tranilast, N-(3′,4′-dimethoxycinnamoyl)anthranilic acid] | 100 | 100 | 100 | 97 | 99 | 5.0 | 5.0 and 5.0 ± 0.0 | 89.7 | 893.3 | 4.3 | 0.0 | 9.3 | 14.3 and 14.3 ± 0.3 | – | – | – | –
2 | Clc1cccc(Cl)c1N=C1NCCN1 [Clonidine] | 51 | 61 | 47 | 65 | 56 | 3.0 | 3.0 and 3.0 ± 1.1 | 47.8 | 560.0 | 2.7 | 0.0 | 5.7 | 8.7 and 8.7 ± 3.3 | 1 | – | – | Bone resorption percent, LFC (MIA rat model of OA; clonidine 100 μg/kg s.c.): 72%; Bone resorption percent, LTP (MIA rat model of OA; clonidine 100 μg/kg s.c.): 87%; Bone resorption percent, MFC (MIA rat model of OA; clonidine 100 μg/kg s.c.): 67%; Bone resorption percent, MTP (MIA rat model of OA; clonidine 100 μg/kg s.c.): 83%; Bone resorption percent, mean (MIA rat model of OA; clonidine 100 μg/kg s.c.): 77%; Bone resorption score (MIA rat model of OA; clonidine 100 μg/kg s.c.): 4.3; Cartilage matrix damage score (MIA rat model of OA; clonidine 100 μg/kg s.c.): 3.7 and 3.7 ± 0.9; Mean of all cartilage loss (MIA rat model of OA; clonidine 100 μg/kg s.c.): 64.9; Osteophyte measure (MIA rat model of OA; clonidine 100 μg/kg s.c.): 560.0 µm; Osteophyte score (MIA rat model of OA; clonidine 100 μg/kg s.c.): 2.7; Subchondral bone sclerosis (MIA rat model of OA; clonidine 100 μg/kg s.c.): 0.0; Total joint score w/o matrix (MIA rat model of OA; clonidine 100 μg/kg s.c.): 7.0; Total joint score with matrix (MIA rat model of OA; clonidine 100 μg/kg s.c.): 10.7 and 10.7 ± 2.8
3 | CC1=C(CO)C(=O)O[C@@H]([C@@H](C)[C@H]2CC[C@H]3[C@@H]4C[C@H]5O[C@]56[C@@H](O)C=CC(=O)[C@]6(C)[C@H]4CC[C@]23C)C1 [Withaferin A] | – | – | – | – | – | – | – | – | – | – | – | – | – | 1 | 3 h | – | –
4 | CC1(C)O[C@@H]2C[C@H]3[C@@H]4C[C@H](F)C5=CC(=O)C=C[C@]5(C)[C@@]4(F)[C@@H](O)C[C@]3(C)[C@]2(C(=O)CO)O1 [Fluocinolone, Fluocinolone Acetonide] | 67 | 67 | 72 | 67 | 68 | 3.7 | 3.3 and 3.3 ± 1.2 | 53.7 | 706.7 | 3.3 | 0.0 | 7.0 | 10.3 and 10.3 ± 2.7 | 5 | 1,3 h | 1 | –
5 | C=CC[C@@H]1/C=C(\C)C[C@H](C)C[C@H](OC)[C@H]2O[C@@](O)(C(=O)C(=O)N3CCCC[C@H]3C(=O)O[C@H](/C(C)=C/[C@@H]3CC[C@@H](O)[C@H](OC)C3)[C@H](C)[C@@H](O)CC1=O)[C@H](C)C[C@@H]2OC [Tacrolimus] | 100 | 100 | 100 | 100 | 100 | 5.0 | 5.0 and 5.0 ± 0.0 | 92.5 | 666.7 | 3.3 | 0.0 | 8.3 | 13.3 and 13.3 ± 1.7 | 3 | – | 3 | Weight bearing, hours with significant effect (MMT/MCLT rat model of OA; day 14, tacrolimus 0.6 mg/kg, fluocinolone 0.010 mg/kg): 1 h
6 | CC(C)(C)CC(=O)OCC(=O)[C@@]12OC(C)(C)O[C@@H]1C[C@H]1[C@@H]3CCC4=CC(=O)C=C[C@]4(C)[C@@]3(F)[C@@H](O)C[C@@]12C [Triamcinolone hexacetonide] | 35 | 34 | 35 | 32 | 34 | 2.3 | 3.3 ± 0.9 | 61.1 | 453.3 | 2.0 | 0.7 | 5.0 | 8.3 ± 2.6 | – | – | – | Cartilage matrix damage score (MIA rat model of OA; i.a. weekly, listed as TH): 3.3; Total joint score with matrix (MIA rat model of OA; i.a. weekly, listed as Trimacinolone Hexacetonide): 8.3
